Data on five molecules can be found in PubChem BioAssay AID720614 (Broad Institute, 2013).

Inconclusive results are not listed. Active and inactive are the calls of the source. The rule behind the calls is not given here. Bounds are passed on as bounds.

The nature of experiment [1]: caspase 3/7 activation in SNB19 cells, mechanism study for HRAS target identification, cell-based, luminescence, several timepoints, dry powder (AID 720614). The conditions noted are these: SNB19 (HRAS) caspase 3/7 apoptosis luminescence, multiple timepoints; for caspase 3/7 activation: at 35 µM (top of the series); for max activity: measured here: timepoint 3 max caspase activation, stronger effect = higher value.

Experiment [2] concerns SNB19 (HRAS) caspase 3/7 apoptosis luminescence, multiple timepoints. The experiment is described as above.

As for `Cc1onc(C(=O)N2CCN(C(c3ccc(Cl)cc3)c3ccc(OCCOCCOCCNC(=O)OC(C)(C)C)cc3)CC2)c1[N+](=O)[O-]` (stereo unspecified), the caspase 3/7 activation in experiment [1] is 12.2% (inactive). The max activity in experiment [1] (at 0.26 µM) worked out at 25.3%.

As for `CC(C)(C)OC(=O)NCCOCCOCCOc1ccc(N(C(=O)CCl)C(C(=O)NCCc2ccccc2)c2cccs2)cc1Cl` (stereo unspecified), the AC40 in experiment [2] is > 35 µM (inactive). The max activity in experiment [1] (at 0.5 µM) came out at 18.7%.

For the molecule `Cc1onc(C(=O)N2CCN(C(c3ccc(Cl)cc3)c3ccc(Cl)cc3)CC2)c1[N+](=O)[O-]`, the caspase 3/7 activation in experiment [1] was 12.2% (inactive). In addition, the max activity in experiment [1] (at 16 µM) is -17.3%.

As to `CCC(=O)N(c1ccc(OC)c(Cl)c1)C(C(=O)NCCc1ccccc1)c1cccs1` (stereo unspecified), the caspase 3/7 activation in experiment [1] is -10.3% (inactive). Moreover, in experiment [1] (at 16 µM), the max activity was determined as 18.7%.

As to `CO[C@H]1C[C@@H]2CC[C@@H](C)[C@@](O)(O2)C(=O)C(=O)N2CCCC[C@H]2C(=O)O[C@H]([C@H](C)C[C@@H]2CC[C@@H](O)[C@H](OC)C2)CC(=O)[C@H](C)/C=C(\C)[C@@H](O)[C@@H](OC)C(=O)[C@H](C)C[C@H](C)/C=C/C=C/C=C/1C`, the AC40 in experiment [2] (measured here: timepoint 2 caspase activation) is greater than 35 µM. For the same molecule, in experiment [1], the caspase 3/7 activation is 2.8% (inactive). Also, in experiment [1] (at 0.008 µM), the max activity is 32%.
